# Experiments:
# [1] = system: sodium channels; assay: patch clamp in whole cell configuration on DUM neurons; assay type: cell-based, cockroaches
# [2] = system: sodium ion currents; assay: current and voltage clamp on axon isolated from cockroaches (double oil separation technique); assay type: cell-based; conditions: applied externally; isolated cockroach axon
# [3] = cited from earlier work
# [4] = oxalate and ions in plasma and urine of patients treated with oxaliplatin
# [5] = after a cumulative dose of 750-850 mg/m^2; cited from earlier work
# [6] = clinical cases 1 to 3: oxaliplatin cycles with or without calcium and magnesium infusion
# [7] = system: potassium ion currents; assay: current and voltage clamp on axon isolated from cockroaches (double oil separation technique); assay type: cell-based; conditions: applied externally; isolated cockroach axon
# [8] = clinical study: prevention of the neurotoxicity of oxaliplatin by calcium and magnesium infusion (103 treatments)
# [9] = system: calcium channels; assay: electrophysiological study of the effect on calcium channels; assay type: cell-based, cockroaches
# Method: An electrophysiological study was carried out in vitro by: • a) current and voltage clamp techniques on axon isolated from cockroaches with the double oil separation technique, • b) patch clamp techniques in whole cell configuration on DUM neurons (dorsal unpair median neuron) from cockroaches (DEA Laurence Gamelin, Etude de la neurotoxicité d'un dérivé du platine, l'oxaliplatine, par une approche électrophysiologique, Paris VII (1999)).
# Indeed, BAPTA, a calcium chelator, gave an identical sodium channel inhibition curve. […] This blocking of the sodium channels causes abnormalities in the action potential of the neuron, that is to say neuronal depolarization disorders and potentially disturbances in the transmission of the impulse.
# [10] = patients treated with oxaliplatin
# [11] = case 3, C6, without calcium and magnesium
# [12] = case 3, cycles C3, C4, C5, without calcium and magnesium
compound,measurement,setting,value
N.N.[Cl][Pt][Cl] [cisplatin],effect of other platinum salts (sodium channels),[1],no effect
N.N.O=C([O-])C1(C(=O)[O-])CCC1.[Pt+2] [carboplatin],effect of other platinum salts (sodium channels),[1],no effect
O=C(O)CN(CC(=O)O)c1ccccc1OCCOc1ccccc1N(CC(=O)O)CC(=O)O [BAPTA],sodium channel inhibition curve compared with oxaliplatin,[1]; calcium chelator tested,identical
"NC1CCCCC1N.[Cl][Pt][Cl] (centres unmarked) [Dach platin, diaminecyclohexaneplatinum]",effect of other platinum salts (sodium channels),[1],no effect
"N[C@@H]1CCCC[C@H]1N.O=C([O-])C(=O)[O-].[Pt+2] (relative stereo) [oxaliplatin, 1,2-diamine cyclohexane (trans-1)oxalatoplatinum]",amplitude of the action potential over time,"[1]; current clamp, whole cell patch clamp, DUM neurons",reduction in the amplitude of the action potential over time
same,plateau of sodium current reduction (inhibition),"[1]; voltage clamp, DUM neurons",60%
same,reduction in the sodium current,"[1]; voltage clamp, over 10 minutes",50%
same,modification in the sodium ion currents,[2],no significant modification
same,share penetrating unchanged into the cell,[3]; FIG. 1,70%
same,share of oxalate release / dichlorodachplatin formation carried out in the intracellular medium,[3]; first stage of metabolism,70%
same,share of oxalate release / dichlorodachplatin formation carried out in the plasma medium,[3]; first stage of metabolism,30%
same,oxalate in plasma (normally undetectable),[4]; [10],significant concentrations
same,"plasma concentrations of calcium (total, ionized) and of magnesium (total and overall)",[4]; [10],without any variation
same,"calciuria, kaliuria and magnesuria",[4]; within 5 hours following the start of infusion,rise
same,urinary elimination of oxalate,[4]; within 5 hours following the start of infusion of oxaliplatin,substantial
same,frequency of the grade 3 neuropathy,[5],15-20%
same,distal and perioral paresthesia,"[6]; case 2, cycle 1, 5-FU, folinic acid + oxaliplatin 130 mg/m^2/21 days, no calcium and magnesium",grade 3
same,diarrhea,"[6]; case 2, cycle 1, no calcium and magnesium",grade 3
same,"neuropathy, NCI",[6]; [11],grade 3
same,"neuropathy, specific scale",[6]; [11],3
same,duration of the incapacitating neuropathy,"[6]; case 3, after C6, without calcium and magnesium",18 months
same,"distal, perioral paresthesia, NCI","[6]; case 3, cycles 1 and 2, 5-FU, folinic acid + oxaliplatin 130 mg/m^2/3 weeks without calcium and magnesium",grade 2
same,"distal, perioral paresthesia, specific scale","[6]; case 3, cycles 1 and 2, without calcium and magnesium",grade 1
same,"neuropathy, NCI",[6]; [12],grade 2
same,"neuropathy, specific scale",[6]; [12],2
same,modification in the potassium ion currents,[7],no significant modification
same,total dose after which oxaliplatin can be reintroduced,"[8]; after prolonged treatment, even with chronic persistent neuropathy, combined with infusion of calcium and magnesium",up to 780 mg/m^2
same,patients with no neurological manifestation,"[8]; cycle 6, in the absence of calcium and magnesium",12%
same,discontinuations linked to progression of the disease,[8]; group of patients without calcium or magnesium,44%
same,toxic causes for discontinuation: neuropathy,[8]; group without calcium and magnesium,56%
same,effect on the calcium channels,[9],no significant effect
[Ca] [calcium],reduction of risk of neurological manifestations at a distance from oxaliplatin administration,[8]; calcium by the oral route,effective
